Laboratory results from PubChem BioAssay (NCI).
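Grown in 96-well plates, cells were treated for 48 hours with each compound at five concentrations. Insufficient inhibition: endpoint recorded as highest concentration tested. TGI denotes the concentration required for complete inhibition of growth.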

What was measured:
Experiment in all cases: NCI anticancer screen, dose series, 48 h
RPMI-8226 leukemia = system: RPMI-8226 leukemia
OVCAR-5 ovarian = system: OVCAR-5 ovarian
K-562 leukemia = system: K-562 leukemia
MCF7 breast = system: MCF7 breast
OVCAR-8 ovarian = system: OVCAR-8 ovarian
RXF 393 renal = system: RXF 393 renal
UO-31 renal = system: UO-31 renal
HCC-2998 colon = system: HCC-2998 colon
COLO 205 colon = system: COLO 205 colon
BT-549 breast = system: BT-549 breast

Row | Compound | TGI (RPMI-8226 leukemia) [µM] | TGI (OVCAR-5 ovarian) [µM] | TGI (K-562 leukemia) [µM] | TGI (MCF7 breast) [µM] | TGI (OVCAR-8 ovarian) [µM] | TGI (RXF 393 renal) [µM] | TGI (UO-31 renal) [µM] | TGI (HCC-2998 colon) [µM] | TGI (COLO 205 colon) [µM] | TGI (BT-549 breast) [µM]
1 | COc1ccc(/C=N/n2c(-c3ccccc3)n[nH]c2=O)c(OC)c1 | > 100 | > 100 | > 100 | > 100 | > 87.6 | > 93.4 | > 70 | > 100 | > 100 | > 44.6
2 | C=CCCCCCCCCCOC1C=CC(O)C(CO)O1 (stereo not given) | 50.4 | > 100 | 53.3 | > 100 | 37.4 | > 100 | > 100 | > 100 | > 100 | > 100
3 | C#C[C@]1(O)CC[C@H]2[C@@H]3CCC4=C/C(=N/OC(=O)c5cccc6cc7ccccc7nc56)CC[C@@H]4[C@H]3CC[C@@]21CC | > 100 | > 100 | > 100 | > 100 | > 100 | > 100 |  | > 100 | > 100 | > 100
4 | COc1ccc2cc(CNCCCCCCNC(=O)Nc3cccc4ccccc34)ccc2c1 | > 100 | > 100 | > 100 | > 100 | > 100 | > 100 |  | > 100 | > 100 | > 100
5 | O=C1c2ccccc2CC12Cc1ccc3c(c1C2=O)CCCC3 (stereo not given) | > 100 | > 100 | > 100 | > 100 | > 100 | 23.9 | > 100 | > 100 | > 100 | > 100
6 | Cc1cc2nc3c(N)nn(CCCN(C)C)c3nc2cc1C | > 100 | > 100 |  | > 100 | > 100 | > 100 | > 100 | > 100 | > 100 | > 100
7 | Cc1ccc(NC(c2ccccc2)P(=O)(c2ccccc2)c2ccccc2)cc1 (stereo not given) | > 100 | > 100 | > 100 | > 100 | > 100 | > 100 | > 100 | > 100 | > 100 | > 100
8 | Cc1c(CCCl)c(Cl)n2c(nc3ccccc32)c1C#N | 0.385 | 4.1 | 3.34 | 5.28 | 2.38 | 3 | 2.56 | 2.94 | 2.47 | 3.98
9 | O=C(OC1C#CCSCC#C/C=C\1)c1ccc2c(c1)C(=O)c1ccccc1C2=O (stereo not given) | > 100 | > 100 | > 100 | > 100 | > 100 | 47.1 | > 100 | > 100 | > 100 | 54.1
10 | NC1=Nc2ncccc2C(=O)NN1 | > 10 | > 10 | > 10 | > 10 | > 10 | > 10 | > 10 | > 10 |  | > 10
11 | CCOC(=O)/C(C(=O)c1ccc[nH]1)=C1/CCCN1C | > 100 | > 100 | > 100 | > 100 | > 100 | > 100 | > 100 | > 100 | > 100 | > 100
12 | C[N+]1(CC[N+]2(C)CCCC2c2cccnc2)CCCC1c1cccnc1 (stereo not given) | > 100 | > 100 | > 100 | > 100 | > 100 | > 100 | > 100 | > 100 | > 100 | > 100
13 | Clc1ccc(Cc2nc3cc4ccccc4cc3[nH]2)cc1Cl | > 100 | > 100 | 83 | 67.3 | 49.8 | 40.2 | 28.5 | 40.4 | > 100 | 37.2
14 | N#CCCN(C(=O)Nc1ccc(NC(=O)N(CCC#N)c2ccccc2)cc1)c1ccccc1 | > 100 | > 100 | > 100 | > 100 | > 100 | > 100 | > 100 | > 100 | > 100 | > 100
15 | CCC(CCCC[C@H]1CC[C@@H]2CC(=O)C[C@H]12)OC (stereo not given in full) | > 100 | > 100 | > 100 | > 100 | > 100 | > 100 |  | > 100 | > 100 | > 100
16 | CC[C@@]1(O)C(=O)OCc2c1cc1n(c2=O)Cc2c-1nc1ccc(N)cc1c2CC[Si](C)(C)C | 0.0841 | 1 | > 38.2 | 0.39 | 0.818 | 0.257 | < 0.0173 | 0.103 | 0.197 | 13.1
17 | C=CCSC1=N/C(=C\c2ccc(C)cc2)C(=O)N1CC=C | 31.9 | > 100 | 44.9 | 55.5 | > 100 | 43.2 | 84.4 | 74.3 | 42 | 81.6
